Reference: patent publication US20070010671A1, “Novel quinazoline derivatives and methods of treatment related to the use thereof” (priority 2003, published 2007)

biological target: MCH receptor (Homo sapiens, UniProt Q99705); test: High throughput functional screening FLIPR/FDSS6000: inhibition of MCH-evoked intracellular Ca2+ changes; format: cell-based; conditions: class by percent of control at 10^-7 M or IC50
Summary of the method: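 Antagonism was measured as inhibition of calcium responses to 50 nM MCH, monitored 290 s at ex 488/em 530 nm on FLIPR or FDSS6000. Beforehand, cells bearing a constitutively active MCH receptor received Fluo4-AM (4 μM, 1 h, 37 °C) with probenecid, and test compound for 3 min.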

Structure (SMILES) | class
CN(C)c1nc(N[C@H]2CC[C@@H](NC(=S)Nc3cc([N+](=O)[O-])ccc3Cl)CC2)nc2ccccc12 [compound 298] | 3 (Class 3: The value of percent of control at 10^−7 M was more than 60% or the value of IC50 was more than 200 nM.)
CC(C)c1ccccc1NC(=O)NC[C@H]1CC[C@@H](Nc2nc(N(C)C)c3ccccc3n2)CC1 [compound 502, N-[(cis-4-{[4-(dimethylamino)quinazolin-2-yl]amino}cyclohexyl)methyl]-N′-(2-isopropylphenyl)urea] | 1 (Class 1: The value of percent of control at 10^−7 M was less than 40% or the value of IC50 was less than 50 nM.)
CN(C)c1nc(N[C@H]2CC[C@@H](CNC(=O)Nc3ccc4c(c3)OCCCO4)CC2)nc2ccccc12 [compound 763] | 3 (Class 3: The value of percent of control at 10^−7 M was more than 60% or the value of IC50 was more than 200 nM.)
CN(C)c1nc(N[C@H]2CC[C@@H](NC(=S)Nc3cccc(Cl)c3Cl)CC2)nc2ccccc12 [compound 210] | 3 (Class 3: The value of percent of control at 10^−7 M was more than 60% or the value of IC50 was more than 200 nM.)
CN(C)c1nc(N[C@H]2CC[C@@H](NC(=S)Nc3ccc([N+](=O)[O-])cc3Cl)CC2)nc2ccccc12 [compound 214] | 2 (Class 2: The value of percent of control at 10^−7 M was from 40% to 60% or the value of IC50 was from 50 nM to 200 nM.)
CN(C)c1nc(N[C@H]2CC[C@@H](CNC(=S)Nc3c(F)c(F)c(F)c(F)c3F)CC2)nc2ccccc12 [compound 616, N-[(cis-4-{[4-(dimethylamino)quinazolin-2-yl]amino}cyclohexyl)methyl]-N′-(pentafluorophenyl)thiourea] | 2 (Class 2: The value of percent of control at 10^−7 M was from 40% to 60% or the value of IC50 was from 50 nM to 200 nM.)

same assay, conditions: class by percent of control at 10^-7 M or by IC50; read-out: class

Structure (SMILES) | IC50 [nM]
CN(C)c1nc(N[C@H]2CC[C@@H](NC(=O)Nc3cc(Cl)ccc3[N+](=O)[O-])CC2)nc2ccccc12 [compound 837] | > 200
CN(C)c1nc(N[C@H]2CC[C@@H](NC(=O)Nc3ccc(Br)cc3Br)CC2)nc2ccccc12 [compound 77, N-(2,4-dibromophenyl)-N′-(cis-4-{[4-(dimethylamino)quinazolin-2-yl]amino}cyclohexyl)urea] | < 50
CN(C)c1nc(N[C@H]2CC[C@@H](CNC(=O)OCCOCc3ccccc3)CC2)nc2ccccc12 [compound 866] | > 200

same assay, conditions: class by percent of control at 10^−7 M or by IC50; read-out: class

Structure (SMILES) | IC50 [nM]
CN(C)c1nc(N[C@H]2CC[C@@H](C(=O)NCc3cc(Cl)cc(Cl)c3)CC2)nc2cc(F)c(F)cc12 [Example 1001, cis-N-(3,5-dichlorobenzyl)-4-{[4-(dimethylamino)-6,7-difluoroquinazolin-2-yl]amino}cyclohexanecarboxamide] | < 50
CN(C)c1nc(N[C@H]2CC[C@@H](CNC(=O)c3ccc(Cl)cc3)C2)nc2ccccc12 [Example 1121, 4-chloro-N-[((1R,3S)-3-{[4-(dimethylamino)quinazolin-2-yl]amino}cyclopentyl)methyl]benzamide] | 50 to 200

Other lines, results leading:

IC50 [nM] | Structure (SMILES)
< 50 | CN(C)c1nc(N[C@H]2CC[C@@H](NC(=O)c3cccnc3Oc3ccc(F)c(F)c3)CC2)nc2ccccc12 [Example 1038, 2-(3,4-difluorophenoxy)-N-(cis-4-{[4-(dimethylamino)quinazolin-2-yl]amino}cyclohexyl)nicotinamide]
50 to 200 | COc1ccccc1OCC(=O)N[C@H]1CC[C@@H](Nc2nc(N(C)C)c3ccccc3n2)CC1 [Example 1082, N-(cis-4-{[4-(dimethylamino)quinazolin-2-yl]amino}cyclohexyl)-2-(2-methoxyphenoxy)acetamide]
< 50 | CN(C)c1nc(N[C@H]2CC[C@@H](NC(=O)c3cccnc3Oc3ccccc3F)CC2)nc2ccccc12 [Example 1030, N-(cis-4-{[4-(dimethylamino)quinazolin-2-yl]amino}cyclohexyl)-2-(2-fluorophenoxy)nicotinamide]
< 50 | CN(C)c1nc(N[C@H]2CC[C@@H](NC(=O)CNc3ccc(F)cc3)CC2)nc2ccccc12 [Example 1091, N-(cis-4-{[4-(dimethylamino)quinazolin-2-yl]amino}cyclohexyl)-N2-(4-fluorophenyl)glycinamide]
